Results as given in EP2891500B1, “Contrast agent for determination of aldehyde dehydrogenase (ALDH) activity” (Cambridge Enterprise Limited, priority 2014, dated 2015).
Several values for one entry are separate records, joined by “and”; a condition that tells them apart may be missing. Identical values can stand only once. One block for each molecule: values may come before it.

Legend:
[1] = Measurement of blood ethanol level (13C MRS on plasma samples); assay type: in vivo, mice; conditions: for ethanol concentration in plasma: plasma withdrawn 75 seconds after start of i.v. injection of 10 µl per g body weight of 110 mM ethanol
Protocol: Measurement of blood ethanol level: An appropriate volume of [2-^13C] ethanol, polarized and dissolved to the same concentration as [1-^13C] ethanol, was injected into the tail vein of animals that had been anesthetized for 30-45 minutes. Blood was withdrawn by cardiac puncture, which began 75 seconds after the start of ethanol injection and was completed within 30 seconds. Individual blood samples were transferred into separate BD Microtainer FE micro-collection tubes (BD, Franklin Lakes, NJ, US), centrifuged at 800 g and the plasma removed and frozen in liquid nitrogen. For NMR spectroscopy, plasma samples were thawed and diluted in 200 mM PBS in D2O, pH 7.5. The buffer contained 100 mM TMSP (2,2,3,3-D4 sodium-3-trimethylsilylpropionate) as an intensity and chemical shift standard (Cambridge Isotope Laboratories, Inc. Andover MA, US). ^13C spectra (the sum of 1024 transients) were acquired under fully relaxed conditions at 125 MHz (Bruker Avance II^+ 500 MHz spectrometer) into 25,294 data points using a 90° pulse, a sweep width of 5 kHz, and a TR of 35 seconds. Integrated intensities of the 2-^13C ethanol and 2-^13C acetate resonances were normalized to that of TMSP and multiplied by the methyl ^13C concentration in 100 mM TMSP (3.33 mM) in order to convert to acetate or ethanol concentrations.

[2] = 13C T1 measurements in vitro (inversion recovery, 11 T); assay type: physicochemical; conditions: PBS buffer, pH 7.5, containing 4% BSA, n=2
Protocol: ^13C T1 measurements in vitro: Measurements were made at 11 T (Bruker Avance II^+ 500 MHz spectrometer) using an inversion recovery sequence in samples containing approximately 10 mM [1-^13C] ethanol or 1 M ethanol, 10% D2O and 4% BSA (Sigma Aldrich), buffered with PBS to pH 7.5. A TR of 300 seconds and 16 delays between 1 and 200 seconds were used for measurements with [1-^13C, U-^2H5] ethanol and a TR of 50 seconds and 16 delays between 0.5 and 50 seconds were used for measurements of the natural abundance ^13C signal from 1M ethanol.

[3] = Hyperpolarisation by dynamic nuclear polarization and liquid state polarization measurement; assay type: physicochemical
Protocol: A 2:3 glycerol: [1-^13C] ethanol mixture, containing 15 mM trityl radical (OX063: tris (8-carboxy-2,2,6,6-tetra-(hydroxyethyl)-benzo-[1,2-4,50]-bis-(1,3)-dithiole-4-yl)-methyl, sodium salt; GE Healthcare, Little Chalfont, UK) and 1.5 mM gadoteric acid (DOTAREM; Guebert, Roissy, France), was polarized for approximately 120 minutes in a 3.35 T Hypersense polarizer (Oxford Instruments, Abingdon, Oxfordshire, UK) using irradiation at 94.124 GHz. The dissolution buffer (PBS, pH 7.5, 100 mg/L EDTA) was heated to 180°C and pressurized to 10 bar before dissolving the frozen polarized samples. The dissolved sample contained 110 mM [1-^13C] ethanol. For measurements of the liquid state polarization a sample of [1-^13C] ethanol was polarized and dissolved as described above. Two mL of the sample, containing approximately 60 mM [1-^13C] ethanol were injected into 2 mL of PBS buffer, pH 7.4 in a 10 mm NMR tube placed inside a vertical bore 9.4 T NMR spectrometer with a broadband probe tuned to ^13C (Varian NMR Instruments, Palo Alto, CA, U.S.). Immediately following injection and approximately 9 seconds after dissolution, 180 single transient spectra, with a nominal pulse flip angle of 6° and 8 kHz spectral width, were acquired with a TR of 1 second. Three 90° pulses were then applied to eliminate the remaining hyperpolarisation. A ^13C spectrum (the sum of 128 transients) was then acquired using a 6° pulse, a spectral width of 8 kHz, and a TR of 300 seconds. The temperature of the sample was kept at 37°C. The liquid state polarization was calculated from the ratio of the maximal integrated intensity of the hyperpolarised [1-^13C] ethanol signal to the integrated intensity of the thermal equilibrium signal corrected for the number of transients.

[4] = biological target: T1, ALDH2 (Mus musculus, UniProt P47738); experiment: ALDH2 activity assay in liver extracts of treated animals; assay type: biochemical, mice; conditions: 24 hours after 600 mg/kg body weight disulfiram, versus control animals
T1 construct: animals were killed and their livers rapidly excised, freeze-clamped and stored at - 80°C before homogenization and enzyme assay; from tissue; host or cells: Triton X-100 extract of freeze-clamped mouse liver
T1 sequence (P47738 20-519): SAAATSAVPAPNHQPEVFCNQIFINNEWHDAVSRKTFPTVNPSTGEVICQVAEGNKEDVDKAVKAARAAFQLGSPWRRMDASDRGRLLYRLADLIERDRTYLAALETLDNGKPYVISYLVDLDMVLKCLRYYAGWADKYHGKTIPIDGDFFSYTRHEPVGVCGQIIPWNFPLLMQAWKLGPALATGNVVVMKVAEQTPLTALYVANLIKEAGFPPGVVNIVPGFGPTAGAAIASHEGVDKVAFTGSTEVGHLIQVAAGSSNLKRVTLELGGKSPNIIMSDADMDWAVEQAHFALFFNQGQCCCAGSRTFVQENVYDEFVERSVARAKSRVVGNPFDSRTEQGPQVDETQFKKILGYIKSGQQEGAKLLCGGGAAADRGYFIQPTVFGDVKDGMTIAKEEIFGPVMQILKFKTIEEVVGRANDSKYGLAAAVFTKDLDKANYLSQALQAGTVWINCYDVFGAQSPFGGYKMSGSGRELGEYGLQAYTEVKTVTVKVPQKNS
Protocol: Animals were given 100 mg/kg or 600 mg/kg body weight of disulfiram as a suspension in 5% w/v of gum arabicum, by oral gavage (Spielman, D.M., Mayer, D., Yen, Y.F., Tropp, J., Hurd, R.E., Pfefferbaum, A., "In vivo measurement of ethanol metabolism in the rat liver using magnetic resonance spectroscopy of hyperpolarised [1-13C]pyruvate.", Magn.Reson.Med. 2009; 62: 307-313). ^13C MRS experiments were performed approximately 24 hours after drug administration. In some experiments, shortly after completion of MRS measurements, animals were killed and their livers rapidly excised, freeze-clamped and stored at - 80°C before homogenization and enzyme assay.
Liver Tissue Extraction: Freeze-clamped livers were homogenized using a manual Potter S homogenizer (Sartorius, Epsom, UK) in 7 volumes (mL per gram wet weight of liver) of ice-cold extraction buffer (50 mM Tris-HCl, pH 7.4 containing 0.25 M sucrose, 0.1 % v/v 2-mercaptoethanol, 1 mM EDTA and protease inhibitor cocktail (Roche)). Ten strokes of 5 seconds (each followed by a 5 second pause) at 1000 r.p.m. were used. […]
ALDH2 activity assay: The assay mixture containing 0.5 mM NAD^+, 0.1 % v/v of 2-mercaptoethanol, 200 mM KCl in 100 mM sodium pyrophosphate buffer, pH 9.0. […] The formation of NADH was measured for 5 minutes after substrate addition as an increase in absorbance at 340 nm using a Tecan Sunrise 96 well plate reader. […]

[5] = biological target: T1, ALDH2; experiment: In vivo 13C MRS of acetate production from hyperpolarised [1-13C, U-2H5]ethanol in liver after disulfiram treatment; parameters: species or system mice; conditions: approximately 24 hours before MRS
Excerpt: All animal experiments were approved by local ethical review committees and performed in accordance with the Animals (Scientific Procedures) Act of 1986. Female CD1 mice (6-8 weeks old) were used in all experiments. Animals were anaesthetized using 3 % isoflurane vapor (Isoflo, Abbotts Laboratories Ltd, Maidenhead, UK) in an oxygen/air mixture. Anesthesia was maintained during the MR experiments with 1-2 % isoflurane vapor in an oxygen/air mixture delivered via a face mask.
In vivo NMR spectroscopy: A catheter was inserted in a tail vein and the mouse placed in a heated cradle. Throughout the experiment animal breathing rate and core body temperature were monitored using a Biotrig physiological monitor (Small Animal Instruments, Stony Brook, NY), which were within the range of 60-100 bpm and 36-37°C, respectively. A 20 mm diameter surface coil (Rapid Biomedical GmbH, Rimpar, Germany) was placed over the liver and the entire assembly placed in a ^13C/^1H volume coil (Rapid Biomedicals, Germany), in a 7T horizontal bore magnet (Varian, Palo Alto, CA). Livers were localized in transverse ^1H images, acquired using a spin-echo pulse sequence (TR, 1.5 s; echo time (TE), 10 ms; field of view, 40 mm x 40 mm; data matrix, 128 x 128; slice thickness, 2 mm; 15 slices). […] All data were phase and baseline corrected and the signal integrals for ethanol and acetate measured. […]

[1-^13C] acetate concentration in plasma ([1]; plasma withdrawn 75 seconds after start of ethanol injection, SD, n=3): 0.93 ± 0.29 mM
ethanol concentration in plasma ([1]; SD, n=3): 1.73 ± 0.48 mM
Structure (SMILES): [13CH3]CO [[2-^13C] ethanol]

^13C T1 [2]: 56 s
polarization buildup time constant of dynamic nuclear polarization ([3]; 3.35 T Hypersense polarizer, n=3): 41.2 ± 5.5 min
T1 calculated from the decay of the polarization ([3]; hyperpolarised sample in PBS, 9.4 T, 37°C, SD, n=3): 53.7 ± 3.2 s
liquid state polarization ([3]; measured approximately 9 seconds after dissolution): 14.1 ± 3.3%
Structure (SMILES): [2H]C([2H])([2H])[13C]([2H])([2H])O [[1-^13C, U-^2H5]ethanol]

decrease of ALDH2 activity in liver extracts [4]: 68%
decrease of the maximum acetate signal (normalized to the maximum ethanol signal) ([5]; disulfiram 100 mg/kg by oral gavage, n=1): approximately 43%
decrease of the maximum acetate signal (normalized to the maximum ethanol signal) ([5]; disulfiram 600 mg/kg body weight by oral gavage, SD, n=3): 79 ± 8% and ~79%
Structure (SMILES): CCN(CC)C(=S)SSC(=S)N(CC)CC [disulfiram]

expected ethanol concentration at equilibrium ([1]; calculated for 10 µl per g body weight of 110 mM ethanol, assuming water is approximately 74% of body weight): approximately 1.5 mM
ethanol concentration in plasma ([1]; SD, n=3): 1.73 mM
^13C T1 [2]: 9.9 s
Structure (SMILES): CCO [ethanol]
